Key:
[1] = target: human dopamine D2L receptor (Homo sapiens, UniProt P14416); experiment: Dopamine D2L radioligand binding ([3H]Spiperone); conditions: compound at 1 μM; […] [3H]Spiperone; read-out: Inhibition of ligand binding, Dopamine D2L (percent inhibition of specific binding)
From the text: Non-specific binding was estimated in the presence of […] Haloperidol. Receptor proteins were filtered and washed, the filters were then counted to determine [^3H]Spiperone specifically bound. […] Biochemical assay results are presented as the percent inhibition of specific binding in Table 9.

[2] = target: T1, human recombinant serotonin (5-Hydroxytryptamine) 5-HT2A receptor (Homo sapiens, UniProt P28223); experiment: Serotonin 5-HT2A radioligand binding ([3H]Ketanserin); conditions: read-out: Inhibition of ligand binding, Serotonin 5-HT2A (percent inhibition of specific binding), compound at 1 μM
T1 construct: expressed in transfected cells; host or cells: Chinese hamster ovary (CHO-K1) cells
T1 sequence (P28223 whole entry): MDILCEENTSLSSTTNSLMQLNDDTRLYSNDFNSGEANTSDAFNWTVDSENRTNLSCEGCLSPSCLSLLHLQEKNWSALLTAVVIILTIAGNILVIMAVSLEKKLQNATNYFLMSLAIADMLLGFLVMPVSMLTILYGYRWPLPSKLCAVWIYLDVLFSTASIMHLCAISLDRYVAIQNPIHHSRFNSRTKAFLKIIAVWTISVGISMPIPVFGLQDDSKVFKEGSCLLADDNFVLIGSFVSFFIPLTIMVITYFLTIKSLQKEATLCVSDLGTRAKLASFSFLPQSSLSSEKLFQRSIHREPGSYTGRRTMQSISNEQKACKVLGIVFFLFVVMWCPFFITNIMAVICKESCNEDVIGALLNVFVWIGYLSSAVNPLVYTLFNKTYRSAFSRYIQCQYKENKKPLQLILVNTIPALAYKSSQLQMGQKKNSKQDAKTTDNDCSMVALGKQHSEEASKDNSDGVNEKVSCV
Method: Compounds of the invention were incubated with 0.5 nM [^3H]Ketanserin for 60 min. at 25° C. Non-specific binding was estimated in the presence of 1 μM Mianserin. Receptor proteins were filtered and washed, the filters were then counted to determine [^3H]Ketanserin specifically bound.

histamine receptor H1 = histamine receptor H1 (Homo sapiens, UniProt P35367); experiment: Histamine H1 radioligand binding ([3H]Pyrilamine); conditions: read-out: Histamine Binding (1 μM) H1, percent inhibition of specific binding, 1 μM
Sequence of histamine receptor H1 (P35367 whole entry): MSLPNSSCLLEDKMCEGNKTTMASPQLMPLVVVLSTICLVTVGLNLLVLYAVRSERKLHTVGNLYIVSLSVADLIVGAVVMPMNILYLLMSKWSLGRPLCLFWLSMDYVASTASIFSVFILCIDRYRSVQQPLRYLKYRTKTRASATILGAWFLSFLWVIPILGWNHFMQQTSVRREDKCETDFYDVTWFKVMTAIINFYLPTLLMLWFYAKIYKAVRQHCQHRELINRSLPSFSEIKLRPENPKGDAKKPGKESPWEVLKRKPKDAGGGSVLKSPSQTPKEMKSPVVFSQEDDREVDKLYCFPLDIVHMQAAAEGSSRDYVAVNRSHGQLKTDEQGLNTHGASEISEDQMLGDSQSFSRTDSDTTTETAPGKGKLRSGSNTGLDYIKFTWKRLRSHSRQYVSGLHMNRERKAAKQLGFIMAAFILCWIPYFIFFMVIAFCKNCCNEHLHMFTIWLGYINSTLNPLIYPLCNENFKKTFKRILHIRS
Summary of the method: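 Values are percent inhibition of specific [3H]pyrilamine (1.2 nM) binding with compounds at ≤1 μM (1% DMSO vehicle); 180 min incubation at 25 °C, pH 7.4 Tris buffer, on CHO-expressed human H1 receptor; 1 μM pyrilamine defined nonspecific binding, bound ligand counted after filtration.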

Sequence of human dopamine D2L receptor (P14416 whole entry): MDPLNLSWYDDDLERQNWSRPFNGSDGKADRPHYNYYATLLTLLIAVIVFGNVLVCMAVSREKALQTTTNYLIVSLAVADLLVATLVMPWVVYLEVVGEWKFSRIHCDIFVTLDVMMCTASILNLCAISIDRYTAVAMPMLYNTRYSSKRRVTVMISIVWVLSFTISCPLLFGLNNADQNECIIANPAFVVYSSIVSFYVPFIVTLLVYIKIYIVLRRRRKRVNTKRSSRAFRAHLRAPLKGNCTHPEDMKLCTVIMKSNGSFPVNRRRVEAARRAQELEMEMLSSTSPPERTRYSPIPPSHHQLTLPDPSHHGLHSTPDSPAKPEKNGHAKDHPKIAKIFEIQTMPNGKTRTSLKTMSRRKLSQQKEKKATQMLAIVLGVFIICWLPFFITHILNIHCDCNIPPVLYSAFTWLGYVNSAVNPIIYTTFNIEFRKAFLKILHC

| SMILES | inhibition at 1 µM [1] | inhibition at 1 µM [2] | inhibition at 1 µM (histamine receptor H1) |
| --- | --- | --- | --- |
| CN1CCc2c(c3cccc(Cl)c3n2C[C@@](C)(O)c2ccncc2)C1 [Compound No. 469, (S)-1-(6-chloro-2-methyl-3,4-dihydro-1H-pyrido[4,3-b]indol-5(2H)-yl)-2-(pyridin-4-yl)propan-2-ol] | 12% | 87% | 14% |
| CN1CCc2c(c3cccc(Cl)c3n2C[C@](C)(O)c2ccncc2)C1 [Compound No. 470, (R)-1-(6-chloro-2-methyl-3,4-dihydro-1H-pyrido[4,3-b]indol-5(2H)-yl)-2-(pyridin-4-yl)propan-2-ol] | 1% | 89% | 17% |
| COc1ccc(/C(C)=C/n2c3c(c4cc(C)ccc42)CN(C)CC3)cn1 [compound 441, (E)-5-(2-(6-methoxypyridin-3-yl)prop-1-enyl)-2,8-dimethyl-2,3,4,5-tetrahydro-1H-pyrido[4,3-b]indole] | 64% | – | 91% |
| C/C(=C\n1c2c(c3cc(N(C)C)ccc31)CN(C)CC2)c1ccc(F)cc1 [compound 442, (E)-5-(2-(4-fluorophenyl)prop-1-enyl)-N,N,2-trimethyl-2,3,4,5-tetrahydro-1H-pyrido[4,3-b]indol-8-amine] | 77% | – | 29% |
| CC(=O)N(C)c1ccc2c(c1)c1c(n2/C=C(\C)c2ccc(F)cc2)CCN(C)C1 [compound 443, (E)-N-(5-(2-(4-fluorophenyl)prop-1-enyl)-2-methyl-2,3,4,5-tetrahydro-1H-pyrido[4,3-b]indol-8-yl)-N-methylacetamide] | 92% | – | -5% |
| CCCCNc1ccc2c(c1)c1c(n2/C=C(\C)c2ccncc2)CCN(C)C1 [compound 444, (E)-N-butyl-2-methyl-5-(2-(pyridin-4-yl)prop-1-enyl)-2,3,4,5-tetrahydro-1H-pyrido[4,3-b]indol-8-amine] | 36% | – | -13% |
| C/C(=C\n1c2c(c3cc(N4CCCCC4)ccc31)CN(C)CC2)c1ccncc1 [compound 445, (E)-2-methyl-8-(piperidin-1-yl)-5-(2-(pyridin-4-yl)prop-1-enyl)-2,3,4,5-tetrahydro-1H-pyrido[4,3-b]indole] | 20% | – | 1% |
| C/C(=C\n1c2c(c3cc(N4CCCC4)ccc31)CN(C)CC2)c1ccncc1 [compound 446, (E)-2-methyl-5-(2-(pyridin-4-yl)prop-1-enyl)-8-(pyrrolidin-1-yl)-2,3,4,5-tetrahydro-1H-pyrido[4,3-b]indole] | 42% | – | -4% |
| C/C(=C\n1c2c(c3cc(NC4CC4)ccc31)CN(C)CC2)c1ccncc1 [compound 447, (E)-N-cyclopropyl-2-methyl-5-(2-(pyridin-4-yl)prop-1-enyl)-2,3,4,5-tetrahydro-1H-pyrido[4,3-b]indol-8-amine] | 59% | – | -1% |
| C/C(=C\n1c2c(c3cc(NC4CCC4)ccc31)CN(C)CC2)c1ccncc1 [compound 448, (E)-N-cyclobutyl-2-methyl-5-(2-(pyridin-4-yl)prop-1-enyl)-2,3,4,5-tetrahydro-1H-pyrido[4,3-b]indol-8-amine] | 79% | – | -10% |
| C/C(=C\n1c2c(c3cc(NCCO)ccc31)CN(C)CC2)c1ccncc1 [compound 449, (E)-2-(2-methyl-5-(2-(pyridin-4-yl)prop-1-enyl)-2,3,4,5-tetrahydro-1H-pyrido[4,3-b]indol-8-ylamino)ethanol] | 59% | – | -7% |
| C/C(=C\n1c2c(c3cc(N(C)C)ccc31)CN(C)CC2)c1ccncc1 [compound 450, (E)-N,N,2-trimethyl-5-(2-(pyridin-4-yl)prop-1-enyl)-2,3,4,5-tetrahydro-1H-pyrido[4,3-b]indol-8-amine] | 35% | – | 43% |
| Cc1ccc2c(c1)c1c(n2/C=C(\F)c2cccs2)CCN(C)C1 [compound 451] | 70% | – | 99% |
| C/C(=C\n1c2c(c3cc(C)ccc31)CN(C)CC2)c1cc(F)c(O)c(F)c1 [compound 452, (E)-4-(1-(2,8-dimethyl-3,4-dihydro-1H-pyrido[4,3-b]indol-5(2H)-yl)prop-1-en-2-yl)-2,6-difluorophenol] | 71% | – | 18% |
| Cc1ccc2c(c1)c1c(n2/C=C(/c2ccccc2)c2ccncc2)CCN(C)C1 [compound 453, (Z)-2,8-dimethyl-5-(2-phenyl-2-(pyridin-4-yl)vinyl)-2,3,4,5-tetrahydro-1H-pyrido[4,3-b]indole] | 51% | – | 26% |
| COc1ccc(/C(C)=C/n2c3c(c4cc(Cl)ccc42)CN(C)CC3)cn1 [compound 454, (E)-8-chloro-5-(2-(6-methoxypyridin-3-yl)prop-1-enyl)-2-methyl-2,3,4,5-tetrahydro-1H-pyrido[4,3-b]indole] | 80% | – | 21% |
| Cc1ccc2c(c1)c1c(n2/C=C(\c2ccccc2)c2ccncc2)CCN(C)C1 [compound 455, (E)-2,8-dimethyl-5-(2-phenyl-2-(pyridin-4-yl)vinyl)-2,3,4,5-tetrahydro-1H-pyrido[4,3-b]indole] | 56% | – | 13% |
| COc1c(F)cc(/C(C)=C/n2c3c(c4cc(C)ccc42)CN(C)CC3)cc1F [compound 456, (E)-5-(2-(3,5-difluoro-4-methoxyphenyl)prop-1-enyl)-2,8-dimethyl-2,3,4,5-tetrahydro-1H-pyrido[4,3-b]indole] | 80% | – | 17% |
| C/C(=C\n1c2c(c3cc(C)ccc31)CN(C)CC2)c1cccc(C(=O)N(C)C)c1 [compound 457, (E)-3-(1-(2,8-dimethyl-3,4-dihydro-1H-pyrido[4,3-b]indol-5(2H)-yl)prop-1-en-2-yl)-N,N-dimethylbenzamide] | 53% | – | 37% |
